These results are taken from US20220025003A1, “REAGENTS AND METHODS FOR CONTROLLING PROTEIN FUNCTION AND INTERACTION” (University of Washington, priority 2018, published 2022).

Experiment [1] has as its system CXCR4. The experiment in a line: cells. Particulars: Homo sapiens, read-out: EC50 (CXCR4 expression).
Experiment [2] concerns GFP, CD95 and CXCR4. In words: 3-gene experiment (GFP, CD95, CXCR4) by RT-qPCR. Type of experiment: cell-based. To be noted: 10 μM danoprevir, 1 μM grazoprevir, 1 μM asunaprevir. The source says:
Cells were harvested on day 5 as described above for other samples to be analyzed to qPCR.
In general terms: In qPCR the cycle at which signal appears reflects the starting amount.

Experiment [3] deals with HeLa cells. The experiment in a line: Widefield microscopy for signaling phenotype analysis. Type of experiment: cell-based. Particulars: EGFP-DNCR2-TIAM, BFP-GNCR1-LARG and NS3a-CAAX in HeLa cells. The method, then: Widefield images were collected in an environmental chamber with humidity control, 37° C., and 5% CO2 on a Leica DMi8 automated fluorescence microscope. Cells were plated on glass-bottomed 96-well plates (Cellvis). Plates were treated with 10 μg/mL bovine fibronectin (Sigma Aldrich) for 1 hour and washed once with PBS.
The cell line used was TRex™-HeLa (ThermoFisher Scientific), into which Lifeact-mCherry™ was stably integrated into the doxycycline-regulated Flp-In site by co-transfection of the pCDNA5-FRT/TO-Lifeact-mCherry™ vector with the Flp recombinase plasmid pOG44 (ThermoFisher Scientific) according to manufacturer's protocols. Lifeact-mCherry™ was induced by addition of 1 μg/mL doxycycline to culture media. For expression of signaling effector proteins, 1 day prior to imaging, 5×10^6 cells were transiently transfected with 10 μg DNA in a 100 μL electroporation tip using a Neon transfection system (ThermoFisher Scientific) according to manufacturer's recommendations for HeLa cells. 5×10^3 cells were plated in each well of the 96-well plate used for imaging. Cells recovered in complete DMEM with 10% FBS overnight. […] For Rac/Rho regulation, the construct PB-NS3a-CAAX-IRES-EGFP-DNCR2-TIAM-P2a-BFP-GNCR1-LARG was used, with images collected for the mCherry™ (Lifeact) and EGFP (DNCR2-TIAM) channels. […]

Experiment [4] concerns RAS/ERK pathway in HEK293 cells. In words: Activation of NS3a-CDAR, phospho-ERK blot. The experiment is classed as cell-based. Particulars: 10 μM drug, 60 min. The procedure:
18-24 hours prior to transfection, 3.0×10^5 HEK293 cells were plated onto poly-D-lysine 12 well plates. Immediately prior to transfection, media was aspirated and cells were washed with 1 mL of pre-warmed (37° C.) PBS, then serum starved with FBS-free DMEM. Following serum starvation, cells were transfected with 1 μg of FLAG-tagged NS3a-CDAR, BH3-NS3a-CDAR, or an empty pCDNA5 vector. Transfected cells were allowed to serum stave for 18-20 hours prior to drug treatment. For drug treatment, serum-free media was prepared with DMSO or 10 μM of a drug. Media was aspirated, washed once with pre-warmed DPBS, then treated with drug/DMSO media for the requisite amount of time. Media was subsequently aspirated and the cells were washed twice with 1 mL chilled PBS, then lysed with 75 μL Mod. RIPA buffer (50 mM Tris, pH 7.8, 1% IGEPAL CA-630, 150 mM NaCl, 1 mM EDTA, 2 mM Na3VO4, 30 mM NaF, Pierce Protease Inhibitor Tablet). Cleared lysates were subjected to SDS-PAGE and transferred to nitrocellulose. Blocking and antibody incubations were done in TBS with 0.1% Tween-20 (v/v) and blocking buffer (Odyssey). Primary antibodies were all purchased from Cell Signaling Technologies and were diluted as follows: Total ERK (1:2500, #9107), phosphorylated ERK (1:2500, #4370), FLAG (1:2,500, #D6W5B). Blots were washed three times in TBS with 0.1% Tween-20. Antibody binding was detected by using near-infrared-dye-conjugated secondary antibodies and visualized on the LI-COR Odyssey scanner. Blots were quantified via densitometry with Image Studio (LI-COR).

Experiment [5] concerns NS3a in NIH3T3 cells. The experiment in a line: Confocal microscopy for colocalization analysis (fixed cells). To be noted: 10 μM drug, 1 h. Type of experiment: cell-based. The method, then:
A Leica SP8× system was used for confocal microscopy. […] TagBFP emission was recorded on a PMT detector, and EGFP and mCherry™ were detected by separate HyD™ detectors.
Colocalization experiments were performed in NIH3T3 cells (Flp-In-3T3, Thermo Fisher Scientific). For fixed-cell experiments, cells were plated at 3×10^4 cells/mL on sterile glass coverslides placed in 12-well culture plates. […] One day after transfection, cells were treated with drug or DMSO and fixed. Drug additions were performed by exchanging the media for DMEM+10% v/v FBS plus drug. To fix, cells were washed once with DPBS (Thermo Fisher Scientific), then incubated with 4% v/v paraformaldehyde in DPBS for 15 minutes. After washing twice with DPBS, coverslides with cells were removed from the plate and mounted on glass slides using Fluoromount-G (SouthernBiotech).
Colocalization of NS3a and DNCR1 at the plasma membrane, nucleus, mitochondria and Golgi was performed with two sets of constructs, with either NS3a or DNCR1 as the immobilized component. mCherry™-NS3a was used with Tom20-DNCR1-EGFP, DNCR1-EGFP-Giantin, and 3×NLS-DNCR1-EGFP. […] Colocalization was analyzed after 1 h of 10 μM drug or equal volume DMSO treatment.
All images were analyzed using ImageJ. […] EGFP fluorescence was quantified in the ROI over the timecourse. […] The cytoplasmic fluorescence was normalized to the value in the first and last frame for each cell. […]

Experiment [6] relates to mCherry reporter gene in HEK293T cells. The experiment in a line: Chemically-disruptable Gal4(DBD)-NS3a(H1)/ANR-VPR transcriptional regulation. Type of experiment: cell-based. Particulars: 1 μM drug, 24 hours. The procedure:
Cells were subsequently transfected with 1 μg of the Gal4 reporter plasmid (UAS-mCherry™/CMV-Gal4-NS3a(H1)-P2A-ANR-Myc-BFP-VPR-NLS) in OptiMem™. […] Supernatant was subsequently removed and the cells were re-suspended in 400 μL DPBS and analyzed on a FACS LSRII (BD Biosciences).
For Gal4/NS3a-CDP mediated transcriptional activation FACS experiments, 10,000 single cell events were collected for each of the samples run. […] The gathered FACS data were analyzed using FlowJo™ (v.10.1).

The test system of experiment [7] is NS3a in NIH3T3 cells. In words: Confocal microscopy for colocalization analysis (fixed cells). The experiment is classed as cell-based. To be noted: for DNCR2-EGFP colocalization with mitochondrial Tom20-mCherry-NS3a: 10 μM drug, 1 h.
Experiment [8] relates to GFP reporter gene in HEK293T cells. The experiment in a line: dciCas9-mediated transcription. The experiment is classed as cell-based. Particulars: 10 μM A115 and 10 μM grazoprevir. The method, then:
For FACS analysis, 10,000 single cell events were collected for each of the samples run. […] The gathered FACS data were analyzed using FlowJo (v.10.1).

Experiment [9] addresses T1, NS3a protease (Hepatitis C virus genotype 1b, UniProt Q9WMX2, A1176V/C1042I/E1056D/L1047A/L1120M/Q1112P/R1052K/V1062L/V1196I).
T1 construct: SNAPtag-NS3a-His6; made in house; host or cells: E. coli BL21(DE3)
In words: NS3a protease inhibition FRET assay. Type of experiment: biochemical. Particulars: ANR-GST fusion, FRET-based protease assay. The procedure: The potency of ANR against NS3a protease was determined via a FRET assay. Titrations of ANR-GST (3-fold serial dilutions starting at 10 μM) were added to a black 96-well plate (Corning, product number 3720) containing 50 nM SNAPtag-NS3a. Reactions were incubated with NS3a-SNAPtag at room temperature for 1 hour. To each well was simultaneously added substrate M-2235 (Bachem) to a final concentration of 5 μM and reactions were monitored by measuring the fluorescence intensity every minute for 30 minutes at 22° C. on a Perkin Elmer EnVision™ fluorometer (excitation, 360 nm; emission 460 nm). Each measurement was carried out in triplicate. Slopes of the fluorescence increase were compared to a no-protease control. A nonlinear regression model was used to fit curves using GraphPad™ Prism.

Experiment [10] addresses T2, NS3a (Hepatitis C virus genotype 1b, UniProt Q9WMX2, A1176V/E1056D/L1047A/L1120M/Q1112P/R1052K/V1062L/V1196I).
T2 construct: Avi-His6-NS3a; the text calls the FP protein non-biotinylated) (N); made in house; host or cells: E. coli BL21 (DE3)
In words: Fluorescence polarization binding assay (FB50) with FAM-ANR. The method, then:
(§1) The affinities of the NS3a variants for ANR were determined using a fluorescence polarization assay. Fluorescently labeled ANR (FAM-ANR, FIG. 5B) was obtained as a crude mixture from GenScript™ and purified by HPLC. Titrations of recombinant NS3a variants (3-fold serial dilutions, starting at 5 μM) were diluted in FP-Buffer (50 mM HEPES, pH 7.8, 100 mM NaCl, 5 mM DTT, 1% Glycerol, 0.01% Tween, 5% v/v DMSO). These dilutions were added to a wells containing FAM-ANR (final concentration=10 nM). FAM-ANR/NS3a solutions were incubated at room temperature in the dark for 1 hour. Fluorescence polarization was measured on a Perkin Elmer EnVision™ fluorometer (excitation, 495 nm; emission 520 nm). All measurements were carried out in black 96-well plates (Corning, product #: 3720) and run in triplicate. Anisotropy values were obtained and a nonlinear regression model was used to determine binding constants in GraphPad™ Prism.
A general note: Polarisation of emitted light reports the rotation of a fluorescent probe.

Experiment [11] deals with T3, NS3a* (Hepatitis C virus genotype 1a, UniProt P27958, C1073S/C1078L/C1185S/I1043Q/I1044E/I1098T/L1039E/L1040E/L1047Q/L1179I/N1200S/P1112Q/Q1106K/T1100M/T1173A).
T3 construct: His6-NS3a; made in house; host or cells: E. coli BL21 (DE3)
The description is as above. The method, then:
as §1

The EC50 is the concentration giving half of the maximal effect.

For `C=C[C@@H]1C[C@]1(NC(=O)[C@@H]1C[C@@H]2CN1C(=O)[C@H](C(C)(C)C)NC(=O)O[C@@H]1C[C@H]1CCCCCc1nc3ccc(OC)cc3nc1O2)C(=O)NS(=O)(=O)C1CC1` [grazoprevir], the EC50 in experiment [1] is 0.16 ± 0.03 nM. In addition, in experiment [2], the “transcriptional output state in 3-gene system” value is on record as “CXCR4 expression under control of GNCR1”. For the same compound, the cell shape change entry in experiment [3] is given as “caused cell contraction”. In experiment [4], the “phospho-ERK levels in cells expressing NS3a-CDAR” value is “robust increase in phospho-ERK levels”. In addition, in experiment [5], the “Colocalization of DNCR1-EGFP and NS3a-mCherry” value is listed as “much lower correlation”. Also, in experiment [6], the “mCherry expression after drug treatment” value is reported as “decreased mCherry™ expression to background levels”. Also, in experiment [7] (5 μM drug), the “Colocalization of DNCR2-EGFP and GNCR1-BFP with NS3a-mCherry-CAAX” value is on record as “GNCR1/NS3a colocalization”. Further, the “Colocalization of NS3a-mCherry with GNCR1-BFP-CAAX or Tom20-DNCR2-EGFP” value in [7] (5 μM drug, 15 min) is recorded as “exclusively colocalized NS3a-mCherry™ to plasma membrane-targeted GNCR1-BFP-CAAX”. For the same compound, in experiment [7], the “DNCR2-EGFP colocalization with mitochondrial Tom20-mCherry-NS3a” value was “neither grazoprevir nor asunaprevir induced DNCR2-EGFP colocalization”. Further, the “GFP expression on co-administration with A115” value in experiment [8] is recorded as “reversed”.
For “genetically-encoded peptide inhibitor of NS3a, GELDELVYLLDGPGYDPIHSD (SEQ ID NO:14); tested as ANR-GST and FAM-ANR”, the “apparent IC50 against NS3a activity” value in [9] was “less than the concentration of NS3a protease used in the assay”. For the same compound, in experiment [10], the “binding to NS3a” value is reported as “binds tightly”. Moreover, the “affinity for NS3a*” value in [11] is listed as “very low affinity”.
As for `C=C[C@@H]1C[C@]1(NC(=O)[C@@H]1C[C@@H](Oc2ncc(OC)c3ccc(Cl)cc23)CN1C(=O)[C@@H](NC(=O)OC(C)(C)C)C(C)(C)C)C(=O)NS(=O)(=O)C1CC1` [asunaprevir], the “transcriptional output state in 3-gene system” value in [2] is on record as “no gene expression”. The “phospho-ERK levels in cells expressing NS3a-CDAR” value in experiment [4] is “robust increase in phospho-ERK levels”. In experiment [5], the “Colocalization of DNCR1-EGFP and NS3a-mCherry” value is “much lower correlation”. Besides, the “DNCR2-EGFP colocalization with mitochondrial Tom20-mCherry-NS3a” value in experiment [7] is on record as “neither grazoprevir nor asunaprevir induced DNCR2-EGFP colocalization”.
